Measured values published in patent publication US12636368B2, “Ionizable lipids for nucleic acid delivery” (Global Life Sciences Solutions Canada ULC, priority 2019, dated 2026).
Where two headings read alike, the source gives them in different places.

Columns and labels:
[1] = TNS assay, surface pKa of lipid nanoparticles; type: physicochemical
Procedure: In embodiments of the invention, the experimental pKa of formulated lipid nanoparticles comprising lipids in Table 1 is calculated using the 2-(p-toluidinyl)naphthalene-6-sulfonic acid (TNS) assay. The procedure for the TNS assay is described in Example 25.
The pKa of each cationic lipid was determined in lipid nanoparticles using an assay based on fluorescence of 6-(p-Toluidino)-2-naphthalenesulfonic acid sodium salt (TNS, Sigma Aldrich), which is a fluorescent probe for the conformational state of proteins5. Empty lipid nanoparticles comprising ionizable lipid in LM02 composition in distilled water at a concentration of 3.125 mM total lipid are formulated using NanoAssemblr® Spark™, and were then was characterized for LNP quality on the Zetasizer™ using a 30× dilution with 1×PBS in the low volume cuvette. Lipid nanoparticles were further diluted 4× using distilled water to 0.781 mM total lipid. TNS was prepared as a 25 μM stock solution in distilled water. Then 6.4 μL of diluted LNP samples of 0.781 mM total lipid were mixed with 10 μL of diluted TNS to a final volume of 250 μL with buffer containing 10 mM HEPES, 10 mM MES, 10 mM NH4OAc and 130 mM NaCl where the pH ranged from 3 to 9 in 0.5 pH increments.
Samples were mixed thoroughly, and the fluorescence intensity was measured at room temperature in a BioTek™ Synergy™ H1 Hybrid Multi-Mode Monochromator™ Fluorescence Microplate Reader using excitation and emission wavelengths of 321 nm and 445 nm respectively. A sigmoidal best fit analysis was applied to the fluorescence data using GraphPad Prism™ software, and the pKa was measured as the pH at half-maximal fluorescence intensity.

human T cells = assay: eGFP ELISA after eGFP mRNA LNP treatment of human T cells; type: cell-based; conditions: Table 4; for Fold Change Relative to MC3: eGFP (pg) relative to MC3; for eGFP: quantity of expressed eGFP, eGFP mRNA LNPs, CT10
Procedure: Reagents were acquired from Abcam, Cambridge, UK unless otherwise stated. […] The assay was performed as directed by the eGFP SimpleStep ELISA® Kit protocol. Briefly; frozen human T cells, previously isolated from fresh human whole blood using a negative selection protocol, were thawed and activated using a triple activator. […] After 48 hours of treatment with mRNA LNPs the T cells were harvested and lysed for total eGFP content.
In order to expose the isolated and activated T cells (Day 0) to the formulated mRNA, 2 ug of CleanCap™ eGFP (Trilink Biotechnologies, San Diego, CA) mRNA-containing LNP was added to 500,000 T cells in 1 mL of complete T cell media, with 1 ug/mL of Recombinant Human ApoE4 (“ApoE”) (Peprotech Inc., Montreal, Canada).
Frozen human T cells, previously isolated from fresh human whole blood using a negative selection protocol, were thawed and activated using a triple activator. At 10 days post-activation, T cells were dosed with CT10 mRNA LNPs LNP comprising DLin-MC3-DMA, PNI 76, PNI 119, PNI 120, PNI 121, and PNI 122 encoding eGFP at 2 pg mRNA per 500,000 cells and N/P 10. Protein expression was measured after 48 hours by eGFP ELISA.

C56BL/6 mice = assay: hEPO expression in mice after i.v. EPO mRNA LNPs; type: in vivo
Procedure: C56BL/6 mice were administered i.v doses of 0.5, 1 or 3 mg/Kg of recombinant human EPO-encoded mRNA LNPs containing ionizable lipids MC3, PNI 76, PNI 121 and PNI 127 using the LM02 composition at N/P 6; hEPO protein was measured using Quantikine® IVD® ELISA Human Erythropoietin Immunoassay protocol. Results for the 0.5 mg/Kg dosage are shown in the scatter plot of FIG. 7. Results for the 1 and 3 mg/Kg doses are shown in FIG. 8 as scatter plots of hEPO expression levels at 6 h (left) and 24 h (right).
In another study, 5-moU EPO mRNA encapsulated in LM02 LNP at an N/P ratio of 6 and a dose of 0.5 mg/Kg comprising a variety of […] ionizable lipids (PNI 336, PNI 534, PNI 535, PNI 342, PNI 321, PNI 532, PNI 538, PNI 541, PNI 325, PNI 328, PNI 329, PNI 539, PNI 540, PNI 127); along with MC3 as a control, were administered. hEPO protein was measured using ProteinSimple® Ella platform, and the rhEPO microfluidic cartridges provided by the manufacturer.
Blood from mice treated with hEPO mRNA LNP was analyzed using an automated ELISA platform “ELLA”, using Simplex™ antibody panel cartridges. Human-specific EPO and mouse-specific IL-5, IL-6, TNF-α, and IFN-γ were measured (reagents from Bio-techne). Briefly, 50 μL of sample reagent (diluted biological sample, quality control, or calibration point sample) were aliquoted into each sample inlet, and 1 mL of wash buffer was added into corresponding inlets on the cartridge. All immunoassay operations (including prime system, flow samples and split them into channels, sample incubation, wash, rehydrate and flow secondary antibody, wash, rehydrate and flow streptavidin dye conjugate, incubate, wash, scan) were processed automatically. Raw signal levels (relative fluorescence units, RFUs), mean signal values, standard deviation, and coefficient of variance (CV) for each glass nanoReactor (GNR) value are provided. RFU values are automatically backfit by the ELLA to produce an analyte concentration per analyte/sample using the manufacturer given calibration methodology.
Reagents were acquired from Quantikine, Minneapolis, MN. The assay was performed as directed on the Quantikine® IVD® ELISA Human Erythropoietin Immunoassay protocol REF DEP00 Package Insert. Briefly; Sera samples of 6 h, and/or 24 h post intravenous administration of 0.5, 1 or 3 mg/kg dose of EPO-encoded mRNA were analyzed for EPO expression analysis, and expressed as mIU/mL. To an EPO antibody pre-coated 96-well microplate, provided by the manufacturer, standards, appropriately diluted sera, and the Horseradish peroxidase (HRP)-conjugated rabbit anti-EPO polyclonal antibody and TMB (Tetramethylbenzidine) as the substrate were added and incubated for 20 minutes. Stop solution (Sulfuric Acid) was added to the wells and the plate was read at 450 nm and the concentration of EPO was calculated. The amount of colour generated is directly proportional to the amount of the conjugate bound to EPO antibody, which in turn is directly proportional to the amount of EPO in the specimen or standard. A standard curve was generated by plotting absorbance versus concentration of provided standards. Quantikine® Human Serum Controls (CEP 01, CEP 03) were used for internal controls.

[2] = LNP size and PDI by dynamic light scattering; type: physicochemical
Procedure: After the lipid particles were made as described supra, particle size (hydrodynamic diameter of the particles) was determined by Dynamic Light Scattering (DLS) using a ZetaSizer™ Nano ZS™ (Malvern Instruments, UK). He/Ne laser tuned to 633 nm wavelength was used as the light source. Data were measured from the scattered intensity data conducted in backscattering detection mode (measurement angle=173). Measurements were an average of 10 runs of two cycles each per sample. Z-Average size was reported as the particle size, and is defined as the harmonic intensity averaged particle diameter.
(§1) Physical characteristics of lipid nanoparticle (LNP) compositions comprising compounds according to Formula (I) and that were manufactured on the NanoAssemblr® Spark and Benchtop, are shown in Tables 6 and 7 below. Size, size variation of the LNP (PDI), encapsulation efficiency, and pKa are shown. The physical characteristics of these LNP are important from a standpoint of stability, biodistribution, and cell membrane crossing. There was good encapsulation in all the formulations, with polydispersity (PDI) under 0.3. Size and PDI were measured using dynamic light scattering techniques, and nucleic acid encapsulation efficiency was calculated from a modified Quant-iT RiboGreen RNA assay.

[3] = Nucleic acid encapsulation efficiency by RiboGreen assay; type: physicochemical
Procedure: Messenger RNA or plasmid NAT was diluted using sodium acetate buffer to the required concentration. Lipid nucleic acid particle samples were then prepared by running both fluids using the NanoAssemblr® Spark instrument. […] The lipid nucleic acid particles made in the instrument were immediately diluted down with 48 μL Ca and Mg free 1×PBS at pH 7.4 in the aqueous output well. These nucleic acid lipid particles were immediately collected into microcentrifuge tubes containing 96 μL of Ca and Mg free 1×PBS at pH 7.4. Encapsulation efficiency was measured by a modified Ribogreen™ assay (Quanti-iT RiboGreen™ RNA assay kit, Fisher). Observed particle attributes were generally sized from 60-200 nm for mRNA, depending on lipid composition and method of production.
as §1

[4] = test system: isolated primary human T cells; assay: GFP mRNA-LNP transfection of primary human T cells, flow cytometry; type: cell-based; conditions: for % eGFP +: Table 4, transfection efficiency, eGFP mRNA LNPs, CT10, N/P 8
Procedure: Reagents were from Stemcell Technologies unless otherwise stated. Tcells were isolated from a single donor. At 48 h following lipid particle mRNA exposure, the treated T cells were harvested by transferring the cell suspensions to pre-labeled 1.5 mL tubes and centrifuged 300×g at 4 degrees C. for 10 minutes. Supernatant was removed and the pellet resuspended in PBS. An amount of 0.5 ul of BD Horizon™ Fixable Viability Stain 575V™ (BD Biosciences), was added, and the mixture incubated in the dark for 10 minutes at RT. This stain binds to amines.
The cells were centrifuged again as before, then washed twice with 1 mL of stain buffer (BSA, BD Pharminigen), and the washed pellet was diluted in 100 μl BSA. The following antibodies were added to each tube of treated cells in 2 μl volumes: CD25, CD8, CD4, (PerCP-Cy™ 5.5 Mouse Anti Human CD25, BV786 Mouse Anti-Human CD8 Clone RPA-T8, APC-Cy™7 Mouse Anti-Human CD4 Clone SK3 (all from BD Pharmingen) with the exception of the controls: in the eGFP only sample and viability control, no antibody was added. In the single stain compensation tubes, only one antibody per tube was added.
The tubes were incubated at 4 degrees C. for 30 min, whereupon […] of stain buffer was added, and the cells were centrifuged again. Cells were washed once with 1 mL of stain buffer and spun down again as in step one. Cell pellets were resuspended in 1 mL of stain buffer and added to pre-labeled flow tubes with cell strainer caps (Corning Falcon). […]
GFP MFI was measured by flow cytometry 48 hours after LNP addition. T cells were isolated from whole blood using a negative isolation procedure (EasySep™ Human T Cell Isolation Kit, Stemcell Technologies). T cells were dosed with mRNA-LNPs 3 days after activation with 500 ng of encapsulated mRNA per 125,000 cells. The LNP were CT10 compositions with an N/P of 8. Transfection efficiency (upper graph) and MFI (lower graph) were measured by flow cytometry 48 h after LNP addition.

primary human T cells = assay: EPO ELISA after EPO mRNA LNP treatment of primary human T cells; type: cell-based; conditions: Table 5; for EPO concentration (mIU/mL): EPO mRNA LNPs, 2 pg mRNA per 500,000 cells, N/P 10, 48 hours
Procedure: Reagents were acquired from Quantikine, Minneapolis, MN. The assay was performed as directed on the Quantikine® IVD® ELISA Human Erythropoietin Immunoassay protocol. REF DEP00 Package Insert. Briefly; primary human T cells were isolated from fresh whole blood using a negative selection protocol and activated using a triple activator. Seven days post-activation, T cells were dosed with mRNA LNPs encoding EPO at 2 pg mRNA per 500,000 cells and N/P 10. Quantikine® Human Serum Controls were used. After 48 hours of treatment with mRNA LNPs the T cells were harvested and lysed for cytosolic EPO and media supernatant was sampled for secreted EPO. Table 5 includes the data of FIG. 6 as well as the fold increase of EPO for PNI 76 and 121 versus MC3.

[5] = Table 4, determined by TNS assay, read-out: pKa Ex.
[6] = Table 1, formulated lipid nanoparticles, TNS assay, read-out: Exp. pKa
[7] = Table 6, GFP-encoded LNPs, CT10, N/P 8
[8] = Table 7, EPO mRNA LNPs, LM02, N/P 6

| SMILES | pKa [1, 5] | Fold Change Relative to MC3 (human T cells) | eGFP (human T cells) [pg] | pKa [1, 6] | pKa ([1]; Table 8, read-out: Exp.pKa) | hEPO protein level compared with MC3 (C56BL/6 mice; FIG. 9, 5-moU EPO mRNA, LM02, N/P 6, 0.5 mg/Kg, 6 h) | protein expression in vivo compared with MC3 (C56BL/6 mice; summary, Table 7 and Figures) | Diameter (Z. ave, nm) [2, 7] [nm] | Polydispersity Index (PDI) [2, 7] | Diameter (Z. ave, nm) [2, 8] [nm] | Polydispersity Index (PDI) [2, 8] | Encapsulation Efficiency (%) [3, 7] [%] | Encapsulation Efficiency (%) [3, 8] [%] | pKa ([1]; Table 5, read-out: pKa Exp.) | transfection efficiency compared with MC3 ([4]; FIG. 1, eGFP mRNA LNP, CT10, N/P 10, 48 hours after treatment) | % eGFP + [4] [%] | EPO Fold Change Relative to MC3 (primary human T cells) | EPO concentration (mIU/mL) (primary human T cells) | pKa Exp. ([1]; Table 5) |
| --- | --- | --- | --- | --- | --- | --- | --- | --- | --- | --- | --- | --- | --- | --- | --- | --- | --- | --- | --- |
| CCCCCCCCCCCCCC(=O)O[C@@H]1[C@@H](OC(=O)CCCCCCCCCCCCC)CO[C@@H]1COC(=O)CCCN(C)C [PNI] | 7.48 | 0.589 | 807.0 |  |  |  |  |  |  |  |  |  |  |  |  |  |  |  |  |
| CCCCC/C=C\C/C=C\CCCCCCCC(=O)O[C@@H]1[C@@H](OC(=O)CCCCCCC/C=C\C/C=C\CCCCC)CO[C@@H]1COC(=O)CC1CCCCN1C (mixture of isomers) [PNI 540] |  |  |  | 5.6 | 5.6 | compare well to MC3 | equivalent to MC3 | 60.6 | 0.08 | 65.7 | 0.05 | 93.5 | 88.1 |  |  |  |  |  |  |
| CCCCCCCCCCCCCC(=O)O[C@H]1COC([C@@H](COC(=O)CCCN(C)C)OC(=O)CCCCCCCCCCCCC)[C@@H]1OC(=O)CCCCCCCCCCCCC (stereo partly drawn) [PNI 76] | 6.42 | 1.095 | 1502.0 | 6.42 | 6.4 |  |  |  |  | 83.1 | 0.16 |  | 88.9 | 6.42 | equal transfection efficiency as MC3 | 62.35 | 0.93 | 507.3 |  |
| CCCCC/C=C\C/C=C\CCCCCCCCC(CCCCCCCC/C=C\C/C=C\CCCCC)OC(=O)CCCN(C)C [MC3, DLin-MC3-DMA, reference compound] |  |  |  |  |  |  |  | 77.2 | 0.11 | 65.1 | 0.04 | 88.6 | 98.8 |  |  |  | 1.0 | 545.2 | 5.99 |
| CCCCC/C=C\C/C=C\CCCCCCCCC(CCCCCCCC/C=C\C/C=C\CCCCC)OC(=O)CCCN(C)C [MC 3, DLin-MC3-DMA, reference compound] | 5.99 | 1 | 1370.0 |  |  |  |  |  |  |  |  |  |  |  |  | 58.95 |  |  |  |
